According to PMC8268887, “Peptide/β-Peptoid Hybrids with Ultrashort PEG-Like Moieties: Effects on Hydrophobicity, Antibacterial Activity and Hemolytic Properties” (International Journal of Molecular Sciences, 2021):
≈ marks a conversion by molar mass, not a printed value. Where two headings read alike, the source gives them in different places.

How the values were obtained:
S. aureus ATCC 29213 = assay type: cell-based, Staphylococcus aureus; settings: ATCC 29213, 20 h
Method: (§1) MIC values of the peptidomimetics were evaluated by using the modified Hancock lab protocol in non-binding polystyrene microtiter plates. Bacterial suspensions of ~5 × 10^5 CFU/mL in Mueller-Hinton broth (Difco, Sparks, MD, USA) were prepared with Mg^2+ and Ca^2+ concentrations of 4 mg/L each. The compounds were dissolved in H2O and diluted in 0.01% acetic acid, 0.2% BSA (final concentration). Aliquots (11 µL) of test compounds were then transferred to wells containing bacterial suspensions (100 µL). Low-binding sterile tubes and tips (Axygen, Union City, CA, USA) were used for preparation and transfer of the solutions of the compounds. Following incubation for 20 h of the covered plates at 35 °C (±2 °C) with circular shaking at 180 rpm, the MICs were read.

[1] = Hydrophobicity by retention in analytical RP-HPLC (% MeCN at peak elution); assay type: physicochemical; settings: for % MeCN at Elution, Aeris Peptide: Phenomenex Aeris Peptide XB-C18 column; for % MeCN at Elution, Aeris Peptide / % MeCN at Elution, Luna Omega / % MeCN at Elution, Supelco Discovery: gradient 0→60% B during 15 min; for % MeCN at Elution, Luna: Phenomenex Luna C18(2) column, RP-HPLC gradient 0→60% B during 15 min, relative hydrophobicity; for % MeCN at Elution, Luna Omega: Phenomenex Luna Omega Polar C18 column; for % MeCN at Elution, Supelco Discovery: Supelco Discovery BIO Wide pore C18 column
Method: For each peptide/β-peptoid hybrid oligomer, the retention time in RP-HPLC was measured on four different columns (details shown in Table 2): Phenomenex Luna C18(2) column (recommended for hydrophobic compounds [49]), Phenomenex Luna Omega Polar C18 column (recommended for both very polar and non-polar compounds [50]) as well as Phenomenex Aeris Peptide XB-C18 [51] and Sigma-Aldrich Supelco Discovery BIO Wide pore C18 [52] columns, which both are recommended for analysis of peptides. The retention times of the compounds on each column were used to calculate the acetonitrile concentration at peak elution (denoted merely as % MeCN; Table 1). As expected, the % MeCN for each compound varied somewhat between the four columns.
Starting materials and solvents were acquired from commercial suppliers (Iris Biotech, Markredwitz, Germany; Fluorochem, Hadfield, UK; and Merck, Darmstadt, Germany) and used without further purification. Water used for analytical and preparative high-performance liquid chromatography (HPLC) was filtered through a 0.22-μm capsule filter using an Evoqua LaboStar Pro TWF UV system. Purity and retention time of each peptidomimetic were determined by analytical HPLC by using a Phenomenex Luna Omega Polar C18 column (150 × 4.6 mm; particle size: 3 μm; pore size: 100 Å) on a Shimadzu Prominence and Shimadzu Nexera system using an aqueous acetonitrile (MeCN, VWR, Søborg, Denmark) gradient with 0.1% trifluoroacetic acid (TFA, Iris Biotech, Markredwitz, Germany) added (eluent A: 5:95 MeCN–H2O + 0.1% TFA, eluent B: 95:5 MeCN–H2O + 0.1% TFA); a flow rate of 0.8 mL/min was used. For elution of peptidomimetics, a linear gradient of 0% to 60% B during 15 min was used with UV detection at λ = 220 nm. […] Retention time of each peptidomimetic was also determined by using a Phenomenex Luna C18(2) column (150 × 4.6 mm; particle size: 3 μm; pore size: 100 Å), a Phenomenex Aeris Peptide XB-C18 column (150 × 4.6 mm; particle size: 3.6 μm; pore size: 100 Å), and a Sigma-Aldrich Supelco Discovery BIO Wide pore C18 column (150 × 4.6 mm, particle size: 3 µm; pore size: 300 Å). For each peptidomimetic, the percentage of MeCN at peak elution was calculated from the retention time by using the following formula:(1) %MeCN =0.95 (0.6Rt/15 min)+0.05 (1−0.6Rt/15 min)

[2] = test system: P. aeruginosa NMI 7197/19; assay type: cell-based, Pseudomonas aeruginosa; settings: NMI 7197/19, 20 h
Method: as §1

P. aeruginosa PAO1 = assay type: cell-based, Pseudomonas aeruginosa; settings: PAO1, 20 h
Method: as §1

E. coli NMI 3898/15 = assay type: cell-based, Escherichia coli; settings: NMI 3898/15, 20 h
Method: as §1

E. coli ATCC 25922 = assay type: cell-based, Escherichia coli; settings: ATCC 25922, 20 h
Method: as §1

E. coli NMI 3371/16 = assay type: cell-based, Escherichia coli; settings: NMI 3371/16, 20 h
Method: as §1

A. baumannii ATCC 19606 = assay type: cell-based, Acinetobacter baumannii; settings: ATCC 19606, 20 h
Method: as §1

A. baumannii NMI 3658/17 = assay type: cell-based, Acinetobacter baumannii; settings: NMI 3658/17, 20 h
Method: as §1

K. pneumoniae ATCC 13883 = assay type: cell-based
Method: as §1

[3] = Determination of hemolytic activity; assay type: cell-based; settings: red blood cell suspension in PBS buffer, human red blood cells at 400 µg/mL, 37 °C
Method: The lysis of human red blood cells was measured almost as previously described, albeit with modifications. In brief, a suspension of freshly drawn human red blood cells (hRBCs) was washed three times with PBS buffer and centrifuged two times for 5 min at 2500 rpm. A two-fold serial dilution of compounds in PBS buffer was prepared. Plates (conical-bottomed 96-well plates) with three replicate wells per dilution, each containing 1% red blood cell suspension, were prepared and dosed with the test compound to achieve a final concentration of 400 μg/mL in a total volume of 100 μL. The plates were incubated (37 °C) for 60 min with mild agitation, and then the cells were pelleted by centrifugation at 1500 rpm for 5 min. The supernatants (50 μL) were then transferred to a fresh 96-well plate, and the concentration of hemoglobin was detected by measuring the OD at 405 nm. The OD of cells incubated with 1% SDS defined 100% hemolysis, while the OD of cells incubated with PBS buffer defined 0% hemolysis. The concentration tested was 400 μg/mL (only average values are stated in Table 5). The percent hemolysis was calculated by using the formula:(3) Hemolysis (%)=100×[Asample−Aneg.control/Apos.control−Aneg.control]

[4] = test system: HepG2 cell line ATCC HB-8065; assay: Antiproliferative activity on HepG2 cell line (MTT assay); assay type: cell-based; settings: inhibition of growth of HepG2 cells, 48 h, MTT; highest concentration tested 1280 µg/mL
Method: (§2) Effect of compounds on mammalian cell viability was estimated on the HepG2 cell line ATCC HB-8065. In brief, HepG2 cells were seeded into flat-bottomed 96-well plates at a concentration of 5000 cells per well. Subsequently, the cells were incubated for 24 h in a humidified incubator (5% CO2, 37 °C). Then, the medium was removed, and the cells were incubated for 48 h in a humidified incubator (5% CO2, 37 °C) with peptidomimetics in serial dilutions. Then, an 3-(4,5-dimethylthiazol-2-yl)-2,5-diphenyltetrazolium bromide (MTT) assay was performed as previously described. In brief, after incubation with the test compounds, the culture medium was removed, and then fresh medium with 0.2 mg/mL MTT was added into each well of the plate. The cells were then incubated (3 h, 37 °C, 5% CO2), followed by removal of the medium with MTT and addition of 200 μL dimethyl sulfoxide at once to each sample. Absorbance of MTT was measured using the spectrophotometer TECAN Infinite M1000 at 540 nm. The relative viability was calculated by using the formula: ODtreated cells × 100/ODcontrol cells. The IC50 values are calculated by using the program Graph Pad Prism® 5.0. For all compounds, the test range was 10–1280 μg/mL.

[5] = as above; assay type: cell-based; settings: HepG2 cells; at 1280 µg/mL, value in parenthesis; read-out: HepG2 cell viability at highest concentration tested
Method: as §2

E. faecalis ATCC 29212 = assay type: cell-based; settings: ATCC 29212, 20 h
Method: as §1

[6] = rat, in vivo; cited from earlier work

Molecule | MIC, SA (S. aureus ATCC 29213) | % MeCN at Elution, Aeris Peptide [1] | % MeCN at Elution, Luna [1] | % MeCN at Elution, Luna Omega [1] | % MeCN at Elution, Supelco Discovery [1] | MIC, P. aeruginosa NMI 7197/19 [2] | MIC, PA (P. aeruginosa PAO1) | MIC, E. coli NMI 3898/15 (E. coli NMI 3898/15) | MIC, EC (E. coli ATCC 25922) | MIC, E. coli NMI 3371/16 (E. coli NMI 3371/16) | MIC, AB (A. baumannii ATCC 19606) | MIC, A. baumannii NMI 3658/17 (A. baumannii NMI 3658/17) | MIC, KP (K. pneumoniae ATCC 13883) | hemolysis at 60 min [3] | HepG2 IC50 [4] | viability at 48 h [5] | MIC, KP (K. pneumoniae ATCC 13883; ATCC 13883, 20 h) | MIC, EF (E. faecalis ATCC 29212) | MIC against E. coli (E. coli ATCC 25922) | elimination half-life [6]
NCCCC[C@H](NC(=O)CCN(Cc1ccc(F)cc1)C(=O)[C@H](CCCCN)NC(=O)CCN(Cc1ccc(F)cc1)C(=O)[C@H](CCCCN)NC(=O)COCCNC(=O)CCN(Cc1ccc(F)cc1)C(=O)[C@H](CCCCN)NC(=O)CCN(Cc1ccc(F)cc1)C(=O)[C@H](CCCCN)NC(=O)CCN(Cc1ccc(F)cc1)C(=O)[C@@H](N)CCCCN)C(=O)N(CCC(N)=O)Cc1ccc(F)cc1 [Compound 6, H-[X]3-sPEG1-[X]3-NH2] | 32 to 64 µg/mL | 39.2 % MeCN | 41.2 % MeCN | 41.6 % MeCN | 41.4 % MeCN | >64 µg/mL | 32 µg/mL (≈ 16.3 µM) | 8 µg/mL (≈ 4.08 µM) | 4 µg/mL (≈ 2.04 µM) | 4 µg/mL (≈ 2.04 µM) | 4 to 8 µg/mL | 4 µg/mL (≈ 2.04 µM) | 64–>64 | 7.7% | 761 µg/mL | 6% |  |  |  | 
NCCCC[C@H](NC(=O)CCN(Cc1ccc(F)cc1)C(=O)[C@H](CCCCN)NC(=O)CCN(Cc1ccc(F)cc1)C(=O)[C@H](CCCCN)NC(=O)COCCOCCOCCNC(=O)CCN(Cc1ccc(F)cc1)C(=O)[C@H](CCCCN)NC(=O)CCN(Cc1ccc(F)cc1)C(=O)[C@H](CCCCN)NC(=O)CCN(Cc1ccc(F)cc1)C(=O)[C@@H](N)CCCCN)C(=O)N(CCC(N)=O)Cc1ccc(F)cc1 [Compound 8, H-[X]3-sPEG3-[X]3-NH2] |  | 39.6 % MeCN | 41.7 % MeCN | 42.1 % MeCN | 41.9 % MeCN | >64 µg/mL | 32 µg/mL (≈ 15.6 µM) | 8 µg/mL (≈ 3.9 µM) | 4 µg/mL (≈ 1.95 µM) | 4 µg/mL (≈ 1.95 µM) | 4 to 8 µg/mL | 4 µg/mL (≈ 1.95 µM) |  | 8.9% | 601 µg/mL | 10% | >64 µg/mL | >64 µg/mL |  | 
NCCCC[C@H](NC(=O)CCN(Cc1ccc(F)cc1)C(=O)[C@H](CCCCN)NC(=O)COCCOCCOCCNC(=O)CCN(Cc1ccc(F)cc1)C(=O)[C@H](CCCCN)NC(=O)CCN(Cc1ccc(F)cc1)C(=O)[C@H](CCCCN)NC(=O)COCCOCCOCCNC(=O)CCN(Cc1ccc(F)cc1)C(=O)[C@H](CCCCN)NC(=O)CCN(Cc1ccc(F)cc1)C(=O)[C@@H](N)CCCCN)C(=O)N(CCC(N)=O)Cc1ccc(F)cc1 [Compound 17, H-[X]2-sPEG3-[X]2-sPEG3-[X]2-NH2] | >64 µg/mL | 39.8 % MeCN | 41.8 % MeCN | 42.4 % MeCN | 42.0 % MeCN | >64 µg/mL | >64 µg/mL | 32 µg/mL (≈ 14.3 µM) | 8 µg/mL (≈ 3.57 µM) | 8 to 16 µg/mL | 16 to 32 µg/mL | 16 µg/mL (≈ 7.14 µM) |  | 9.4% | ~1280 µg/mL | 35% | >64 µg/mL | >64 µg/mL |  | 
NCCCC[C@H](NC(=O)CCN(Cc1ccc(F)cc1)C(=O)[C@H](CCCCN)NC(=O)CCOCCOCCOCCOCCNC(=O)CCN(Cc1ccc(F)cc1)C(=O)[C@H](CCCCN)NC(=O)CCN(Cc1ccc(F)cc1)C(=O)[C@H](CCCCN)NC(=O)CCOCCOCCOCCOCCNC(=O)CCN(Cc1ccc(F)cc1)C(=O)[C@H](CCCCN)NC(=O)CCN(Cc1ccc(F)cc1)C(=O)[C@@H](N)CCCCN)C(=O)N(CCC(N)=O)Cc1ccc(F)cc1 [Compound 18, H-[X]2-sPEG4-[X]2-sPEG4-[X]2-NH2] | >64 µg/mL | 40.1 % MeCN | 42.1 % MeCN | 42.7 % MeCN | 42.3 % MeCN | >64 µg/mL | >64 µg/mL | 16 µg/mL (≈ 6.79 µM) | 4 to 8 µg/mL | 8 to 16 µg/mL | 8 to 16 µg/mL | 16 µg/mL (≈ 6.79 µM) |  | 8.3% | ~1280 µg/mL | 41% | 64 µg/mL (≈ 27.2 µM) | >64 µg/mL | 1.2 to 2.4 µM | 
VDKPPYLPRPRPIRrPGGr-NH2 [OM19r-8] |  |  |  |  |  |  |  |  |  |  |  |  |  |  |  |  |  |  |  | 1.6 min
